In US7332476B2, “Pyridyl substituted ketolide antibiotics” (Novartis AG, priority 2003, dated 2008):
Values after ≈ are worked out from the molar mass of the structure shown.

Legend:
Assay in all cases: MIC, broth microdilution (NCCLS)
[1] = system: Streptococcus pneumoniae Stpn_297-749; assay type: cell-based; parameters: MIC, strain ID N: unit not given here; conditions: for MIC: Table 10, Strain ID N (Table 8): Streptococcus pneumoniae Stpn_297-749
Method in brief: (§1)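 Broth microdilution per NCCLS in cation-adjusted Mueller-Hinton broth, with 2-5% lysed horse blood added for S. pneumoniae. Inoculum 3×10^5–7×10^5 CFU/ml, 2-fold drug dilutions, 18-24 h at 35° C; S. pneumoniae under 5-10% CO2, others ambient air. MIC = lowest concentration preventing visible growth.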

[2] = system: Staphylococcus aureus Stau_29213; assay type: cell-based; conditions: in µg/mL (unit assumed); for MIC: Table 10, Strain ID A (Table 8): Staphylococcus aureus Stau_29213
Method in brief: as §1

[3] = system: Enterococcus faecalis Enfa_29212; assay type: cell-based; conditions: in µg/mL (unit assumed); for MIC: Table 10, Strain ID E (Table 8): Enterococcus faecalis Enfa_29212
Method in brief: as §1

[4] = system: Staphylococcus epidermidis Step_14990; assay type: cell-based; conditions: in µg/mL (unit assumed); for MIC: Table 10, Strain ID C (Table 8): Staphylococcus epidermidis Step_14990
Method in brief: as §1

[5] = system: Streptococcus pneumoniae Stpn_Erm S 4297; assay type: cell-based; conditions: for MIC: Table 10, Strain ID R (Table 8): Streptococcus pneumoniae Stpn_Erm S 4297
Method in brief: as §1

[6] = system: Streptococcus pneumoniae Stpn_Mef S 3427; assay type: cell-based; conditions: Table 10, Strain ID Q (Table 8): Streptococcus pneumoniae Stpn_Mef S 3427; in µg/mL (unit assumed)
Method in brief: as §1

[7] = system: Staphylococcus epidermidis Step_f50654; assay type: cell-based; conditions: in µg/mL (unit assumed); for MIC: Table 10, Strain ID D (Table 8): Staphylococcus epidermidis Step_f50654
Method in brief: as §1

[8] = system: S. pneumoniae Stpn_Erm 6849; assay type: cell-based, Streptococcus pneumoniae; conditions: strain ID P; broth microdilution; in µg/mL (unit assumed)
Method in brief: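 Lowest drug concentration giving no visible growth after 18-24 hours at 35° C. under 5-10% CO2 was taken as MIC. Twofold serial dilutions in CAMHB plus 2-5% lysed horse blood, final inoculum 3×10^5–7×10^5 CFU/ml, per NCCLS microdilution.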

Structure (SMILES)	MIC [1]	MIC [2]	MIC [3]	MIC [4]	MIC ([5]; unit assumed) [µg/mL]	MIC [6]	MIC [7]	MIC, strain ID N ([1]; strain ID N, broth microdilution)	MIC, strain ID A ([2]; strain ID A, broth microdilution)	MIC, strain ID E ([3]; strain ID E, broth microdilution)	MIC, strain ID C ([4]; strain ID C, broth microdilution)	MIC [5]	MIC, strain ID Q ([5]; strain ID Q, broth microdilution, in µg/mL (unit assumed))	MIC, strain ID D ([7]; strain ID D, broth microdilution)	MIC, strain ID P [8]
CC[C@H]1OC(=O)[C@@](C)(F)C(=O)[C@H](C)[C@@H](OC2O[C@H](C)C[C@H](N(C)C)[C@H]2O)[C@@](C)(OC)C[C@@H](C)C(=O)[C@H](C)[C@H]2N(CCCCn3cnc(-c4ccc(C)nc4)c3)C(=O)O[C@]12CC (some centres unmarked) [XIV]	=0.05	0.2	0.2	0.2	0.1 (≈ 0.117 µM)	0.1	0.4	–	–	–	–	–	–	–	–
CC[C@H]1OC(=O)[C@H](C)C(=O)[C@H](C)[C@@H](O[C@@H]2O[C@H](C)C[C@H](N(C)C)[C@H]2O)[C@](C)(OC)C[C@@H](C)C(=O)[C@H](C)[C@H]2N(CCCCn3cnc(-c4cccnc4)c3)C(=O)O[C@]12C [Telithromycin, telithromycin, reference compound]	=0.05	0.1-0.2	0.1-0.2	0.1-0.2	–	0.1-0.2	0.1-0.2	=0.05	0.1-0.2	0.1-0.2	0.1-0.2	=0.1	0.1-0.2	0.1-0.2	0.2-0.78
C=C[C@]12OC(=O)N(CCCCn3cnc(-c4ccc(C)nc4)c3)[C@@H]1[C@@H](C)C(=O)[C@H](C)C[C@](C)(OC)[C@H](OC1O[C@H](C)C[C@H](N(C)C)[C@H]1O)[C@@H](C)C(=O)[C@@H](C)C(=O)O[C@@H]2CC (some centres unmarked) [XVI]	=0.05	0.2	0.1	0.2	–	0.1	0.2	–	–	–	–	=0.05	–	–	–
C=C[C@]12OC(=O)N(CCCCn3cnc(-c4ccc(OC)nc4)c3)[C@@H]1[C@@H](C)C(=O)[C@H](C)C[C@](C)(OC)[C@H](OC1O[C@H](C)C[C@H](N(C)C)[C@H]1O)[C@@H](C)C(=O)[C@@H](C)C(=O)O[C@@H]2CC (some centres unmarked) [XVIII]	=0.05	0.2	0.1	0.2	0.1 (≈ 0.117 µM)	0.2	0.2	–	–	–	–	–	–	–	–
